Converted amounts (≈) assume the structure as drawn.
Experiments:
NIH3T3 = test: Cytotoxicity against mouse NIH/3T3 cells by MTT assay; type: cell-based
Streptococcus pyogenes = test: microbe, parasite or virus in culture; type: functional; conditions: MTCC 442
Description: Antibacterial activity against Streptococcus pyogenes MTCC 442 by broth dilution method

Escherichia coli = test: microbe, parasite or virus in culture; type: functional; conditions: MTCC 443
Description: Antibacterial activity against Escherichia coli MTCC 443 by broth dilution method

Staphylococcus aureus = test: Antibacterial activity against Staphylococcus aureus MTCC 96 by broth dilution method; type: functional
HeLa = test: Cytotoxicity against human HeLa cells by MTT assay; type: cell-based
Pseudomonas aeruginosa = test: microbe, parasite or virus in culture; type: functional; conditions: MTCC 1688
Description: Antibacterial activity against Pseudomonas aeruginosa MTCC 1688 by broth dilution method

| MIC (Streptococcus pyogenes) [µg/mL] | MIC (Escherichia coli) [µg/mL] | MIC (Staphylococcus aureus) [µg/mL] | MIC (Pseudomonas aeruginosa) [µg/mL] | SMILES | IC50 (NIH3T3) [µg/mL] | IC50 (HeLa) [µg/mL] |
| --- | --- | --- | --- | --- | --- | --- |
| 25 (≈ 50 µM) | 250 (≈ 500 µM) | 25 (≈ 50 µM) | 50 (≈ 100 µM) | N#Cc1c(-c2ccccc2F)c(C#N)c(=O)n(/N=C/c2cn(-c3ccccc3)nc2-c2ccccc2)c1N | > 200 | > 200 |
| 250 (≈ 502 µM) | 500 (≈ 1000 µM) | 500 (≈ 1000 µM) | 500 (≈ 1000 µM) | N#Cc1c(-c2ccccc2O)c(C#N)c(=O)n(/N=C/c2cn(-c3ccccc3)nc2-c2ccccc2)c1N | 162 (≈ 326 µM) | > 200 |
| 12.5 (≈ 24.2 µM) | 500 (≈ 969 µM) | 100 (≈ 194 µM) | 500 (≈ 969 µM) | N#Cc1c(-c2ccc(Cl)cc2)c(C#N)c(=O)n(/N=C/c2cn(-c3ccccc3)nc2-c2ccccc2)c1N | 64 (≈ 124 µM) | > 200 |
| 100 (≈ 194 µM) | 50 (≈ 96.9 µM) | 500 (≈ 969 µM) | 250 (≈ 485 µM) | N#Cc1c(-c2cccc(Cl)c2)c(C#N)c(=O)n(/N=C/c2cn(-c3ccccc3)nc2-c2ccccc2)c1N | 52 (≈ 101 µM) | > 200 |
| 250 (≈ 489 µM) | 500 (≈ 977 µM) | 500 (≈ 977 µM) | 500 (≈ 977 µM) | COc1ccc(-c2c(C#N)c(N)n(/N=C/c3cn(-c4ccccc4)nc3-c3ccccc3)c(=O)c2C#N)cc1 | 50 (≈ 97.7 µM) | > 200 |
| 250 (≈ 446 µM) | 100 (≈ 178 µM) | 12.5 (≈ 22.3 µM) | 250 (≈ 446 µM) | N#Cc1c(-c2ccccc2Br)c(C#N)c(=O)n(/N=C/c2cn(-c3ccccc3)nc2-c2ccccc2)c1N | 174 (≈ 310 µM) | > 200 |
| 50 (≈ 100 µM) | 100 (≈ 200 µM) | 50 (≈ 100 µM) | 50 (≈ 100 µM) | N#Cc1c(-c2cccc(F)c2)c(C#N)c(=O)n(/N=C/c2cn(-c3ccccc3)nc2-c2ccccc2)c1N | 154 (≈ 308 µM) | > 200 |
| 250 (≈ 455 µM) | 250 (≈ 455 µM) | 25 (≈ 45.5 µM) | 25 (≈ 45.5 µM) | N#Cc1c(-c2ccc(C(F)(F)F)cc2)c(C#N)c(=O)n(/N=C/c2cn(-c3ccccc3)nc2-c2ccccc2)c1N | > 200 | > 200 |
| 12.5 (≈ 23.7 µM) | 12.5 (≈ 23.7 µM) | 50 (≈ 95 µM) | 25 (≈ 47.5 µM) | N#Cc1c(-c2ccc([N+](=O)[O-])cc2)c(C#N)c(=O)n(/N=C/c2cn(-c3ccccc3)nc2-c2ccccc2)c1N | 84 (≈ 160 µM) | > 200 |
| 50 (≈ 95 µM) | 100 (≈ 190 µM) | 250 (≈ 475 µM) | 100 (≈ 190 µM) | N#Cc1c(-c2cccc([N+](=O)[O-])c2)c(C#N)c(=O)n(/N=C/c2cn(-c3ccccc3)nc2-c2ccccc2)c1N | 124 (≈ 236 µM) | > 200 |
| 500 (≈ 1000 µM) | 500 (≈ 1000 µM) | 500 (≈ 1000 µM) | 500 (≈ 1000 µM) | N#Cc1c(-c2ccc(O)cc2)c(C#N)c(=O)n(/N=C/c2cn(-c3ccccc3)nc2-c2ccccc2)c1N | 110 (≈ 221 µM) | > 200 |
| 100 (≈ 178 µM) | 500 (≈ 892 µM) | 12.5 (≈ 22.3 µM) | 100 (≈ 178 µM) | N#Cc1c(-c2ccc(Br)cc2)c(C#N)c(=O)n(/N=C/c2cn(-c3ccccc3)nc2-c2ccccc2)c1N | > 200 | > 200 |
| 100 (≈ 200 µM) | 12.5 (≈ 25 µM) | 12.5 (≈ 25 µM) | 25 (≈ 50 µM) | N#Cc1c(-c2ccc(F)cc2)c(C#N)c(=O)n(/N=C/c2cn(-c3ccccc3)nc2-c2ccccc2)c1N | > 200 | > 200 |
| 250 (≈ 437 µM) | 500 (≈ 875 µM) | 500 (≈ 875 µM) | 250 (≈ 437 µM) | COc1cc(-c2c(C#N)c(N)n(/N=C/c3cn(-c4ccccc4)nc3-c3ccccc3)c(=O)c2C#N)cc(OC)c1OC | 64 (≈ 112 µM) | > 200 |
| 100 (≈ 194 µM) | 100 (≈ 194 µM) | 100 (≈ 194 µM) | 100 (≈ 194 µM) | N#Cc1c(-c2ccccc2Cl)c(C#N)c(=O)n(/N=C/c2cn(-c3ccccc3)nc2-c2ccccc2)c1N | 84 (≈ 163 µM) | > 200 |
| 250 (≈ 504 µM) | 500 (≈ 1010 µM) | 500 (≈ 1010 µM) | 250 (≈ 504 µM) | Cc1ccc(-c2c(C#N)c(N)n(/N=C/c3cn(-c4ccccc4)nc3-c3ccccc3)c(=O)c2C#N)cc1 | 98 (≈ 198 µM) | > 200 |
| 500 (≈ 1040 µM) | 250 (≈ 519 µM) | 500 (≈ 1040 µM) | 500 (≈ 1040 µM) | N#Cc1c(-c2ccccc2)c(C#N)c(=O)n(/N=C/c2cn(-c3ccccc3)nc2-c2ccccc2)c1N | 180 (≈ 374 µM) | > 200 |
| 500 (≈ 892 µM) | 100 (≈ 178 µM) | 250 (≈ 446 µM) | 250 (≈ 446 µM) | N#Cc1c(-c2cccc(Br)c2)c(C#N)c(=O)n(/N=C/c2cn(-c3ccccc3)nc2-c2ccccc2)c1N | 42 (≈ 74.9 µM) | > 200 |
| 250 (≈ 475 µM) | 25 (≈ 47.5 µM) | 25 (≈ 47.5 µM) | 100 (≈ 190 µM) | N#Cc1c(-c2ccccc2[N+](=O)[O-])c(C#N)c(=O)n(/N=C/c2cn(-c3ccccc3)nc2-c2ccccc2)c1N | > 200 | > 200 |
| 250 (≈ 455 µM) | 100 (≈ 182 µM) | 100 (≈ 182 µM) | 250 (≈ 455 µM) | N#Cc1c(-c2ccccc2C(F)(F)F)c(C#N)c(=O)n(/N=C/c2cn(-c3ccccc3)nc2-c2ccccc2)c1N | 56 (≈ 102 µM) | > 200 |

| SMILES | MIC (Streptococcus pyogenes) [µg/mL] | MIC (Escherichia coli) [µg/mL] | MIC (Staphylococcus aureus) [µg/mL] | MIC (Pseudomonas aeruginosa) [µg/mL] | IC50 (NIH3T3) [µg/mL] | IC50 (HeLa) [µg/mL] |
| --- | --- | --- | --- | --- | --- | --- |
| O=C(O)c1cn(C2CC2)c2cc(N3CCNCC3)c(F)cc2c1=O [CIPROFLOXACIN] | 50 (≈ 151 µM) | 25 (≈ 75.4 µM) | 50 (≈ 151 µM) | – | – | – |

Source: ChEMBL document CHEMBL2375330, “Synthesis of pyrazole encompassing 2-pyridone derivatives as antibacterial agents” (Bioorg Med Chem Lett, 2013)
